Results published in patent publication US4728640A, “Treatment of dysmenorrhea” (Roussel Uclaf, priority 1985, dated 1988).

Columns and labels:
[1] = system: ovarian steroidogenosis; experiment: Inhibitory activity on ovarian steroidogenesis in women, intranasal; assay type: in vivo; conditions: for reduction of seric levels of progesterone compared to the controls: typical subject (sheet 3)
Description: The inhibitory activity of [D Ser (tbu)^6 des Gly NH2^10 ] LH-RH ethylamide on ovarian steroidogenosis in women was determined on 6 women aged 26 to 35 years with normal and regular menstrual cycles and without prior endocrinal or gynecological problems. […] Two drops of a solution containing 500 μg of [D Ser (tbu)^6 des Gly NH2^10 ] LH-RH ethylamide were deposited on each nostril at 8 A.M. and 5 P.M. of a day between the 4th and 9th day after the peak of LH-day 0. Daily blood samples were taken between 4 and 6 P.M. to measure seric levels of LH, FSH, progesterone and estradiol which were determined by radioimmuno-logictests with double antibodies. The antibodies to measure LH and FSH were furnished by the National Pituitory Agency of N.I.H. of Bethesda, Md.
Estradiol and progesterone were measured with highly specific antibodies developed against 7-(O-carboxymethyl)-oxime of estradiol and 12-(O-carboxymethyl)-oxime of progesterone, respectively [3H]17β-estradiol and ^125 I-progesterone-12-[O-carboxymethyl)-oxime] used as tracers. The serum was extracted with benzene and the steroids were separated with a LH-20 column before the determination. The radioimmunological results were exploited by the program derived from model II of Rodbard and Lewald as in Example 1 and the statistical significance was measured by the multiple level test of Ducan-Kramer of Example 1. The results are shown in the graphs of sheets 3 to 5 of the Figures.

[2] = system: testicular steroidogensis; experiment: Inhibitory activity against testicular steroidogenesis in healthy men, single intranasal dose; assay type: in vivo; conditions: for steroid/testosterone level on the fourth day after administration: fourth day (until 6th day)
Description: The inhibitory activity of [D Ser (tbu)^6 of des Gly NH2^10 ] LH-RH ethylamide (described in German application Ser. No. 2,438,350) against testicular steroidogensis in men in good health was determined on men in good health aged 30 to 40 years. The said product was administered intranasally at a dose of 500 μg in a few drops of distilled water at 8 A.M. on the third day of the test. For 2 days prior to the treatment and for 6 days after the treatment, samples of blood were taken daily at 8 A.M., 3 P.M. and 10 P.M. On the day of administration of the LH-RH agonist, blood samples were taken at 11 A.M. and 6 P.M.
The seric concentrations of LH and FSH were measured by radioimmuno-logic dosages with double antibodies and the antibodies for measuring LH and FSH were furnished by the National Pituitary Agency of N.I.H. in Bethesda, Md. The seric concentrations of steroids was measured by radioimmuno-logic dosages in which one ml of serum was extracted with ether and the steroids were separated on a LH-20 column before measuring with radioimmuno-logic dosages. The radioimmuno-logic dosage results were determined by a program derived from model II of Rodbard et al [Second Karolinska Symposium on Research Methods in Reproductive Endrocrinology, Diczfalusky Editor, Copenhague (1970), p. 79-103]. The statistical significance was determined by the "multiple level test" of Duncan-Kramer [Kramer, Biometrics, Vol 12 (1956), p. 307]. The results are shown in the graphs on sheet 1 of the Figures filed herewith.

[3] = system: testicular steriodogenosis; experiment: Inhibitory activity on testicular steroidogenesis in a patient with prostate cancer, intranasal twice a day; assay type: in vivo, human; conditions: 500 μg intranasally twice a day
Source text: The inhibitory activity of [D Ser (tbu)^6 des Gly NH2^10 ] […] The results are reported in the graphs of sheet 2 of the Figures.

[4] = human, single intranasal dose 500 μg
[5] = men, intranasal 500 μg, 3rd day following administration

CCNC(=O)[C@@H]1CCCN1C(=O)[C@H](CCCNC(=N)N)NC(=O)[C@H](CC(C)C)NC(=O)[C@@H](COC(C)(C)C)NC(=O)[C@H](Cc1ccc(O)cc1)NC(=O)[C@H](CO)NC(=O)[C@H](Cc1c[nH]c2ccccc12)NC(=O)[C@H](Cc1c[nH]cn1)NC(=O)[C@@H]1CCC(=O)N1 [[D Ser (tbu)^6 des Gly NH2^10] LH-RH ethylamide]
level of seric progesterone, course ([1]; 2 cycles of post-treatment): return to normal
level of seric progesterone, course ([1]; 2 cycles of treatment): accelerated diminution
reduction of the level of progesterone compared to the controls ([1]; 12 cycles of treatment (sheet 5), scale 13 to 127%): 46%
progesterone level as % of pretreatment cycles (base 100%) ([1]; cycles of post-treatment (12 cycles)): 99%
progesterone level as % of pretreatment cycles (base 100%) ([1]; cycles of treatment (12 cycles)): 46%
reduction of seric levels of progesterone compared to the controls ([1]; first cycle of treatment): 13%
reduction of seric levels of progesterone compared to the controls ([1]; second cycle of treatment): 34%
duration of the drop of seric levels of testicular steroids (testosterone and its precursors) [2, 4]: 3 days
diminution of the level of testosterone ([2]; human, single intranasal dose 500 μg, 3rd day following administration): 50%
steroid/testosterone level on the fourth day after administration [2, 4]: returned to normal
steroid/testosterone level on the fourth day after administration ([2]; human, single intranasal dose 500 μg, listed as the peptide): return to normal levels
LH and FSH plasmatic levels ([2]; men, intranasal 500 μg): increase
concentration of 17-OH-progesterone relative to initial control values [2, 5]: 40%
concentration of testosterone relative to initial control values [2, 5]: 50%
seric concentration of pregnenolone, 17-OH-pregnenolone, progesterone, 17-OH-progesterone, Δ5-androstene-3β,17β-diol and testosterone ([2]; men, intranasal 500 μg, day of treatment): increased
level of androgenic steroids [3]: diminution
level of testosterone ([3]; two weeks of treatment): stabilized at a very low level
